Experiments:
Enterobacter aerogenes = experiment: antibiogram by diffusion on Mueller-Hinton agar with antibiotic wafers; format: cell-based; conditions: Table C1, six wafers, disk loads of Table B
Klebsiella oxytoca = experiment: as above; format: cell-based; conditions: Table C1; K. oxytoca phenotype Wild; six wafers, disk loads of Table B
Enterobacter cloacea = experiment: as above; format: cell-based; conditions: Table C1, six wafers, disk loads of Table B
Proteus mirabilis = experiment: as above; format: cell-based; conditions: Table C1, six wafers, disk loads of Table B
Escherichia coli = experiment: as above; format: cell-based; conditions: for resistance (I, R) or sensitivity (S): Table C1, disk loads of Table B; for resistant (I/R) or sensitive (S): Table C2, square dish; for synergy zone between two antibiotic wafers placed side by side: E. coli strain of BSBL phenotype, champagne-cork shaped inhibition zone
Klebsiella pneumoniae = experiment: as above; format: cell-based; conditions: for resistance (I, R) or sensitivity (S): Table C1, six wafers, disk loads of Table B; for resistant (I/R) or sensitive (S): Table C2, sixteen wafers, square dish
Pseudomonas aeruginosa = experiment: as above; format: cell-based; conditions: Table C1, six wafers, disk loads of Table B
BSBL bacteria = conditions: all of the BSBL bacteria in Table C1
Excerpt: Synergies are generated with the method on agar by the antibiotics diffusing in the agar as a result of the fact that providing the distance between two antibiotics is small enough (in the range 2 centimeters (cm) to 2.5 cm for Gram negative bacteria) they are capable of diffusing over a common portion of the agar, and as a result it is the association of the two antibiotics in this specific location that makes it possible, where appropriate, to see the appearance of a new inhibition zone, which is the synergy zone.
In the event of synergy occurring, it is possible to see mechanisms of synergy between two antibiotics since an additional inhibition zone appears generally between the two antibiotics in question. It may be in the form of an enlargement of the diameter around the disk A going towards the disk B if A and B present mutual synergy.
The BSBL phenotype includes a synergy phenotype between ceftriaxone and clavulanic acid, and thus between CRO and TCC or AMC (for all of the BSBL bacteria in the table).

[1] = P. mirabilis phenotype Hl cephalosporinase
[2] = P. mirabilis phenotype Hl penicillinase
[3] = P. mirabilis phenotype Inhibitor resistant penicillinase
[4] = P. mirabilis phenotype Ll penicillinase
[5] = E. coli phenotype BSBL, six wafers
[6] = E. coli phenotype Carbapenemase, six wafers
[7] = E. coli phenotype Hl cephalosporinase, six wafers
[8] = E. coli phenotype Hl penicillinase, six wafers
[9] = E. coli phenotype Inhibitor resistant penicillinase, six wafers
[10] = E. coli phenotype Ll penicillinase, six wafers
[11] = E. coli phenotype Wild, six wafers in a circle
[12] = E. coli phenotype Cephalosporinase + R to fluoroquinolones + R to cotrimoxazole + partial R to aminosides, sixteen wafers
[13] = E. coli phenotype Hl penicillinase + R to fluoroquinolones + R to cotrimoxazole + partial R to aminosides, sixteen wafers
[14] = E. coli phenotype Wild, sixteen wafers in a rectangular grid
[15] = K. pneumoniae phenotype Carbapenemase
[16] = K. pneumoniae phenotype Hl cephalosporinase
[17] = K. pneumoniae phenotype Hl penicillinase
[18] = K. pneumoniae phenotype Ll penicillinase
[19] = K. pneumoniae phenotype Cephalosporinase + R to aminosides + R to cotrimoxazole

Compound	resistance (I, R) or sensitivity (S) (Enterobacter aerogenes; E. aerogenes phenotype BSBL)	resistance (I, R) or sensitivity (S) (Enterobacter aerogenes; E. aerogenes phenotype Wild)	resistance (I, R) or sensitivity (S) (Klebsiella oxytoca)	resistance (I, R) or sensitivity (S) (Enterobacter cloacea; E. cloacae phenotype BSBL)	resistance (I, R) or sensitivity (S) (Enterobacter cloacea; E. cloacae phenotype Wild)	resistance (I, R) or sensitivity (S) (Proteus mirabilis; [1])	resistance (I, R) or sensitivity (S) (Proteus mirabilis; [2])	resistance (I, R) or sensitivity (S) (Proteus mirabilis; [3])	resistance (I, R) or sensitivity (S) (Proteus mirabilis; [4])	resistance (I, R) or sensitivity (S) (Proteus mirabilis; P. mirabilis phenotype Wild)	resistance (I, R) or sensitivity (S) (Escherichia coli; [5])	resistance (I, R) or sensitivity (S) (Escherichia coli; [6])	resistance (I, R) or sensitivity (S) (Escherichia coli; [7])	resistance (I, R) or sensitivity (S) (Escherichia coli; [8])	resistance (I, R) or sensitivity (S) (Escherichia coli; [9])	resistance (I, R) or sensitivity (S) (Escherichia coli; [10])	resistance (I, R) or sensitivity (S) (Escherichia coli; [11])	resistant (I/R) or sensitive (S) (Escherichia coli; [12])	resistant (I/R) or sensitive (S) (Escherichia coli; [13])	resistant (I/R) or sensitive (S) (Escherichia coli; [14])	further results
C[C@@H](O)[C@H]1C(=O)N2C(C(=O)O)=C(SCCN=CN)C[C@H]12 [IMP, imipenem]	S	S	S	S	S	S	S	S	S	S	S	R	S	S	S	S	S	S	S	S	resistance (I, R) or sensitivity (S) (Klebsiella pneumoniae; K. pneumoniae phenotype BSBL): S; resistance (I, R) or sensitivity (S) (Klebsiella pneumoniae; [15]): R; resistance (I, R) or sensitivity (S) (Klebsiella pneumoniae; [16]): S; resistance (I, R) or sensitivity (S) (Klebsiella pneumoniae; [17]): S; resistance (I, R) or sensitivity (S) (Klebsiella pneumoniae; [18]): S; resistance (I, R) or sensitivity (S) (Klebsiella pneumoniae; K. pneumoniae phenotype Wild): S; resistant (I/R) or sensitive (S) (Klebsiella pneumoniae; [19]): S; resistant (I/R) or sensitive (S) (Klebsiella pneumoniae; K. pneumoniae phenotype Wild): S; resistance (I, R) or sensitivity (S) (Pseudomonas aeruginosa; P. aeruginosa Abnormal phenotype): S; resistance (I, R) or sensitivity (S) (Pseudomonas aeruginosa; P. aeruginosa phenotype BSBL): S; resistance (I, R) or sensitivity (S) (Pseudomonas aeruginosa; P. aeruginosa phenotype Carbapenemase): R; resistance (I, R) or sensitivity (S) (Pseudomonas aeruginosa; P. aeruginosa phenotype Penicillinase): S; resistance (I, R) or sensitivity (S) (Pseudomonas aeruginosa; P. aeruginosa phenotype Selective imipenem permeability): I; resistance (I, R) or sensitivity (S) (Pseudomonas aeruginosa; P. aeruginosa phenotype Wild): S
amoxicillin-clavulanic acid [AMC]	R	S	S	R	S	R	I	R	S	S	R	R	R	I/R	R	S	S	R	I	S	synergy zone between two antibiotic wafers placed side by side (Escherichia coli): synergy zone; synergy zone between two antibiotic wafers placed side by side (Escherichia coli; listed as amoxicillin+clavulanic acid): synergy; resistance (I, R) or sensitivity (S) (Klebsiella pneumoniae; K. pneumoniae phenotype BSBL): R; resistance (I, R) or sensitivity (S) (Klebsiella pneumoniae; [15]): R; resistance (I, R) or sensitivity (S) (Klebsiella pneumoniae; [16]): I/R; resistance (I, R) or sensitivity (S) (Klebsiella pneumoniae; [17]): I/R; resistance (I, R) or sensitivity (S) (Klebsiella pneumoniae; [18]): S; resistance (I, R) or sensitivity (S) (Klebsiella pneumoniae; K. pneumoniae phenotype Wild): S; resistant (I/R) or sensitive (S) (Klebsiella pneumoniae; [19]): R; resistant (I/R) or sensitive (S) (Klebsiella pneumoniae; K. pneumoniae phenotype Wild): R; synergy phenotype between antibiotics (BSBL bacteria): synergy
